Two compounds from US4597900A, “Des^2 -glycine^8 -des^22 -calcitonin” (Armour Pharmaceutical Co., priority 1983, dated 1986) can be followed below.

Where a SMILES comes first, the peptide text is derived from it. Bridges are numbered along the chain shown (N, C = ends).

The subject of this experiment is serum calcium concentration. Description: Biological assay of calcitonin analogs in vivo: reduction of serum calcium concentration, 2x2 parallel line assay. Further details: species or system Rats. On the procedure:
The biological potency of [Des-Serine^2 -Glycine^8 -Des-Tyrosine^22 ]salmon calcitonin was determined by comparing the reduction of serum calcium concentration which followed administration by graded doses of [Des-Ser^2 -Gly^8 -Des-Tyr^22 ]SCT and synthetic salmon calcitonin standard. Rats were divided into four groups of seven animals, and each group was assigned at random to a dose of standard or test solution. Low and high doses were chosen from the linear portion of the dose-response curve. For the salmon calcitonin standard, the values were 0.7 and 2.1 ng. peptide/100 g. body weight (BW). This dose approximates 3 and 9 MU/100 g. BW. Peptides were given by subcutaneous injection (0.2 ml/100 g. BW) and blood was withdrawn 1 hour later for serum calcium determination. Sera are processed and analyzed within two hours of collection. […]. Results were analyzed by a 2×2 parallel line assay [Gaddum, J. H., J. Pharm. Pharmacol., 6, 345 (1953)]. The standard salmon calcitonin used was independently determined to contain greater than 4,000 IU/mg. [Des-Ser^2 -Gly^8 -Des-Tyr^22 ]SCT assayed at 6900 IU/mg.

Take `CC(C)C[C@H](NC(=O)CNC(=O)[C@@H]1CSSC[C@H](N)C(=O)N[C@@H](CC(N)=O)C(=O)N[C@@H](CC(C)C)C(=O)N[C@@H](CO)C(=O)N[C@@H]([C@@H](C)O)C(=O)N1)C(=O)NCC(=O)N[C@@H](CCCCN)C(=O)N[C@@H](CC(C)C)C(=O)N[C@@H](CO)C(=O)N[C@@H](CCC(N)=O)C(=O)N[C@@H](CCC(=O)O)C(=O)N[C@@H](CC(C)C)C(=O)N[C@@H](Cc1c[nH]cn1)C(=O)N[C@@H](CCCCN)C(=O)N[C@@H](CC(C)C)C(=O)N[C@@H](CCC(N)=O)C(=O)N[C@H](C(=O)N1CCC[C@H]1C(=O)N[C@@H](CCCNC(=N)N)C(=O)N[C@H](C(=O)N[C@@H](CC(N)=O)C(=O)N[C@H](C(=O)NCC(=O)N[C@@H](CO)C(=O)NCC(=O)N[C@H](C(=O)N1CCC[C@H]1C(N)=O)[C@@H](C)O)[C@@H](C)O)[C@@H](C)O)[C@@H](C)O` [[Des-Ser^2 -Gly^8 -Des-Tyr^22]SCT, [Des-Serine^2 -Glycine^8 -Des-Tyrosine^22]salmon calcitonin] (H-CNLSTCGLGKLSQELHKLQTPRTNTGSGTP-NH2; disulfide 1-6): for the setting “rats, subcutaneous injection, blood withdrawn 1 hour later, compared with synthetic salmon calcitonin standard”, the “biological potency (reduction of serum calcium concentration)” value worked out at 6900 IU/mg.
For the compound `CC(C)C[C@H](NC(=O)[C@H](CCCCN)NC(=O)CNC(=O)[C@H](CC(C)C)NC(=O)[C@@H](NC(=O)[C@@H]1CSSC[C@H](N)C(=O)N[C@@H](CO)C(=O)N[C@@H](CC(N)=O)C(=O)N[C@@H](CC(C)C)C(=O)N[C@@H](CO)C(=O)N[C@@H]([C@@H](C)O)C(=O)N1)C(C)C)C(=O)N[C@@H](CO)C(=O)N[C@@H](CCC(N)=O)C(=O)N[C@@H](CCC(=O)O)C(=O)N[C@@H](CC(C)C)C(=O)N[C@@H](Cc1c[nH]cn1)C(=O)N[C@@H](CCCCN)C(=O)N[C@@H](CC(C)C)C(=O)N[C@@H](CCC(N)=O)C(=O)N[C@H](C(=O)N[C@@H](Cc1ccc(O)cc1)C(=O)N1CCC[C@H]1C(=O)N[C@@H](CCCNC(=N)N)C(=O)N[C@H](C(=O)N[C@@H](CC(N)=O)C(=O)N[C@H](C(=O)NCC(=O)N[C@@H](CO)C(=O)NCC(=O)N[C@H](C(=O)N1CCC[C@H]1C(N)=O)[C@@H](C)O)[C@@H](C)O)[C@@H](C)O)[C@@H](C)O` [standard salmon calcitonin, Salmon calcitonin], the “potency of standard, independently determined” value (standard salmon calcitonin used in the assay) is “greater than 4,000 IU/mg”.
